Laboratory results: ChEMBL document CHEMBL4011641, “Prodrugs of Pyrazolo[3,4-d]pyrimidines: From Library Synthesis to Evaluation as Potential Anticancer Agents in an Orthotopic Glioblastoma Model” (J Med Chem, 2017)
≈ marks a conversion by molar mass, not a printed value.

tested on: not listed separately; assay: physchem; conditions: PAMPA; call rule not given here

SMILES | Papp at 5 h, 500 µM
Clc1ccccc1CNc1ncnc2c1cnn2CC(Cl)c1ccc(Br)cc1 (stereo not drawn) | 13.2 ×10⁻⁶ cm/s
CSc1nc(N(CCc2ccccc2)C(=O)OCCN2CCN(C)CC2)c2cnn(CC(Cl)c3ccccc3)c2n1 (stereo not drawn) | 0.01 ×10⁻⁶ cm/s
CCC(CN1CCN(C)CC1)OC(=O)N(c1cccc(Br)c1)c1nc(SC)nc2c1cnn2CC(C)c1ccccc1 (stereo not drawn) | 0.93 ×10⁻⁶ cm/s
CCCCNc1nc(SCC)nc2c1cnn2CC(Cl)c1ccccc1 (stereo not drawn) | 9.99 ×10⁻⁶ cm/s
CSc1nc(N(C(=O)OC(Cc2ccccc2)CN2CCN(C)CC2)c2cccc(Br)c2)c2cnn(CC(C)c3ccccc3)c2n1 (stereo not drawn) | 1.01 ×10⁻⁶ cm/s
CSc1nc(N(C(=O)OCCN2CCN(C)CC2)c2cccc(Cl)c2)c2cnn(CC(Cl)c3ccccc3)c2n1 (stereo not drawn) | 4.14 ×10⁻⁶ cm/s
CN1CCN(CCOC(=O)N(Cc2ccccc2Cl)c2ncnc3c2cnn3CC(Cl)c2ccc(Br)cc2)CC1 (stereo not drawn) | 1.92 ×10⁻⁶ cm/s
CSc1nc(Nc2cccc(Br)c2)c2cnn(CC(C)c3ccccc3)c2n1 (stereo not drawn) | 0.5 ×10⁻⁶ cm/s
CSc1nc(Nc2cccc(Cl)c2)c2cnn(CC(Cl)c3ccccc3)c2n1 (stereo not drawn) | 3.14 ×10⁻⁶ cm/s
CN1CCN(CCOC(=O)N(Cc2ccccc2)c2ncnc3c2cnn3CC(Cl)c2ccccc2)CC1 (stereo not drawn) | 5.01 ×10⁻⁶ cm/s

tested on: not listed separately; assay: Metabolic stability in human liver microsomes assessed as parent compound remaining at 50 uM after 1 hr in presence of NADPH regenerating system by UV/LC-MS analysis; format: ADME, microsome; conditions: read-out: Stability

SMILES | remaining at 1 h, 50 µM
Clc1ccccc1CNc1ncnc2c1cnn2CC(Cl)c1ccc(Br)cc1 (stereo not drawn) | 95.2%
CSc1nc(Nc2cccc(Cl)c2)c2cnn(CC(Cl)c3ccccc3)c2n1 (stereo not drawn) | 91.1%
CN1CCN(CCOC(=O)N(Cc2ccccc2)c2ncnc3c2cnn3CC(Cl)c2ccccc2)CC1 (stereo not drawn) | 86.4%

tested on: not listed separately; assay: cells; conditions: Homo sapiens, U-87 MG, 24 h
Description: Cytotoxicity against human U87 cells assessed as reduction in cell viability after 24 hrs by trypan blue assay

SMILES | IC50
CCC(CN1CCN(C)CC1)OC(=O)N(c1cccc(Br)c1)c1nc(SC)nc2c1cnn2CC(C)c1ccccc1 (stereo not drawn) | 7.7 µM
CSc1nc(N(C(=O)OC(Cc2ccccc2)CN2CCN(C)CC2)c2cccc(Br)c2)c2cnn(CC(C)c3ccccc3)c2n1 (stereo not drawn) | 6.7 µM
CSc1nc(N(C(=O)OCCN2CCN(C)CC2)c2cccc(Cl)c2)c2cnn(CC(Cl)c3ccccc3)c2n1 (stereo not drawn) | 11.5 µM
CSc1nc(Nc2cccc(Br)c2)c2cnn(CC(C)c3ccccc3)c2n1 (stereo not drawn) | 16.2 µM
CSc1nc(Nc2cccc(Cl)c2)c2cnn(CC(Cl)c3ccccc3)c2n1 (stereo not drawn) | 21.8 µM
CN1CCN(CCOC(=O)N(Cc2ccccc2)c2ncnc3c2cnn3CC(Cl)c2ccccc2)CC1 (stereo not drawn) | 18.6 µM

tested on: not listed separately; assay: Metabolic stability in mouse liver microsomes assessed as unmetabolized compound remaining at 50 uM after 1 hr in presence of NADPH regenerating system by UV/LC-MS analysis; format: ADME, microsome; conditions: read-out: Stability

SMILES | remaining at 1 h, 50 µM
CSc1nc(Nc2cccc(Br)c2)c2cnn(CC(C)c3ccccc3)c2n1 (stereo not drawn) | 94.2%

tested on: not listed separately; assay: cells; conditions: Homo sapiens, U-87 MG, 48 h
Description: Cytotoxicity against human U87 cells assessed as reduction in cell viability after 48 hrs by trypan blue assay

SMILES | IC50
CCC(CN1CCN(C)CC1)OC(=O)N(c1cccc(Br)c1)c1nc(SC)nc2c1cnn2CC(C)c1ccccc1 (stereo not drawn) | 6.4 µM
CSc1nc(N(C(=O)OC(Cc2ccccc2)CN2CCN(C)CC2)c2cccc(Br)c2)c2cnn(CC(C)c3ccccc3)c2n1 (stereo not drawn) | 2.45 µM
CSc1nc(N(C(=O)OCCN2CCN(C)CC2)c2cccc(Cl)c2)c2cnn(CC(Cl)c3ccccc3)c2n1 (stereo not drawn) | 7.9 µM
CSc1nc(Nc2cccc(Br)c2)c2cnn(CC(C)c3ccccc3)c2n1 (stereo not drawn) | 2.3 µM
CSc1nc(Nc2cccc(Cl)c2)c2cnn(CC(Cl)c3ccccc3)c2n1 (stereo not drawn) | 17.2 µM
CN1CCN(CCOC(=O)N(Cc2ccccc2)c2ncnc3c2cnn3CC(Cl)c2ccccc2)CC1 (stereo not drawn) | 15.2 µM

tested on: not listed separately; assay: Prodrug activation in human U87 cells assessed as N-(3-bromophenyl)-6-(methylthio)-1-(2-phenylpropyl)-1H-pyrazolo[3,4-d]pyrimidin-4-amine formation at 20 uM up to 25 hrs by UV/LC-MS analysis; format: cell-based; conditions: u-87mg atcc

SMILES | Drug metabolism
CSc1nc(N(C(=O)OC(Cc2ccccc2)CN2CCN(C)CC2)c2cccc(Br)c2)c2cnn(CC(C)c3ccccc3)c2n1 (stereo not drawn) | Metabolite_Detected

tested on: not listed separately; assay: cells; conditions: Homo sapiens, U-87 MG, 72 h
Description: Cytotoxicity against human U87 cells assessed as reduction in cell viability after 72 hrs by trypan blue assay

SMILES | IC50
CCC(CN1CCN(C)CC1)OC(=O)N(c1cccc(Br)c1)c1nc(SC)nc2c1cnn2CC(C)c1ccccc1 (stereo not drawn) | 2 µM
CSc1nc(N(C(=O)OC(Cc2ccccc2)CN2CCN(C)CC2)c2cccc(Br)c2)c2cnn(CC(C)c3ccccc3)c2n1 (stereo not drawn) | 1.69 µM
CSc1nc(N(C(=O)OCCN2CCN(C)CC2)c2cccc(Cl)c2)c2cnn(CC(Cl)c3ccccc3)c2n1 (stereo not drawn) | 2.54 µM
CSc1nc(Nc2cccc(Br)c2)c2cnn(CC(C)c3ccccc3)c2n1 (stereo not drawn) | 1.5 µM
CSc1nc(Nc2cccc(Cl)c2)c2cnn(CC(Cl)c3ccccc3)c2n1 (stereo not drawn) | 12.5 µM
CN1CCN(CCOC(=O)N(Cc2ccccc2)c2ncnc3c2cnn3CC(Cl)c2ccccc2)CC1 (stereo not drawn) | 15 µM

molecular target: Proto-oncogene tyrosine-protein kinase Src (Homo sapiens, UniProt P12931); assay: biochemical; conditions: not given
Sequence (P12931 2-536 limits assumed): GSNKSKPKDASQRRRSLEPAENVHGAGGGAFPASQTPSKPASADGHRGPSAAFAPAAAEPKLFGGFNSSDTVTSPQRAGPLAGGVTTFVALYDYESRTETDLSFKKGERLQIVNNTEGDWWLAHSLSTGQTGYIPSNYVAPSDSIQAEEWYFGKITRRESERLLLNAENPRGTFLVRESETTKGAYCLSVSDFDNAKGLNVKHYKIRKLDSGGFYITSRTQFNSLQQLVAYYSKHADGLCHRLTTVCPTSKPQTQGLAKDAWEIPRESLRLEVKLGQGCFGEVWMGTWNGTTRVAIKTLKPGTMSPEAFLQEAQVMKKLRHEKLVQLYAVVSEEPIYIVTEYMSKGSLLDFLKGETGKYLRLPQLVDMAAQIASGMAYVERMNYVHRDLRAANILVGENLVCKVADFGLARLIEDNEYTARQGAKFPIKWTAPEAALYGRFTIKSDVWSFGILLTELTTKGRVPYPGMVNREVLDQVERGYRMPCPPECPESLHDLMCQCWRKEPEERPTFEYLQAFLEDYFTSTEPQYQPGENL

SMILES | Ki
CSc1nc(N(C(=O)OC(Cc2ccccc2)CN2CCN(C)CC2)c2cccc(Br)c2)c2cnn(CC(C)c3ccccc3)c2n1 (stereo not drawn) | > 100 µM
CSc1nc(Nc2cccc(Cl)c2)c2cnn(CC(Cl)c3ccccc3)c2n1 (stereo not drawn) | 0.72 µM

tested on: not listed separately; assay: physchem; conditions: PAMPA; remark: another data set of the same source
Description: Apparent permeability at 500 uM after 5 hrs by Gastro-intestinal-based PAMPA

SMILES | Papp at 5 h, 500 µM
CSc1nc(N(CCc2ccccc2)C(=O)OCCN2CCN(C)CC2)c2cnn(CC(Cl)c3ccccc3)c2n1 (stereo not drawn) | 0.85 ×10⁻⁶ cm/s
CCC(CN1CCN(C)CC1)OC(=O)N(c1cccc(Br)c1)c1nc(SC)nc2c1cnn2CC(C)c1ccccc1 (stereo not drawn) | 1.45 ×10⁻⁶ cm/s
CSc1nc(N(C(=O)OC(Cc2ccccc2)CN2CCN(C)CC2)c2cccc(Br)c2)c2cnn(CC(C)c3ccccc3)c2n1 (stereo not drawn) | 2.32 ×10⁻⁶ cm/s
CSc1nc(N(C(=O)OCCN2CCN(C)CC2)c2cccc(Cl)c2)c2cnn(CC(Cl)c3ccccc3)c2n1 (stereo not drawn) | 4.95 ×10⁻⁶ cm/s
CN1CCN(CCOC(=O)N(Cc2ccccc2Cl)c2ncnc3c2cnn3CC(Cl)c2ccc(Br)cc2)CC1 (stereo not drawn) | 2.38 ×10⁻⁶ cm/s
CSc1nc(Nc2cccc(Br)c2)c2cnn(CC(C)c3ccccc3)c2n1 (stereo not drawn) | 0.01 ×10⁻⁶ cm/s
CN1CCN(CCOC(=O)N(Cc2ccccc2)c2ncnc3c2cnn3CC(Cl)c2ccccc2)CC1 (stereo not drawn) | 6.7 ×10⁻⁶ cm/s

tested on: not listed separately; assay: Half life in PBS buffer at 100 uM at pH 7.4 by UV/LC-MS analysis; format: physicochemical; conditions: not given

SMILES | half-life at 100 µM
CSc1nc(N(CCc2ccccc2)C(=O)OCCN2CCN(C)CC2)c2cnn(CC(Cl)c3ccccc3)c2n1 (stereo not drawn) | > 48 h
CCC(CN1CCN(C)CC1)OC(=O)N(c1cccc(Br)c1)c1nc(SC)nc2c1cnn2CC(C)c1ccccc1 (stereo not drawn) | > 48 h
CSc1nc(N(C(=O)OC(Cc2ccccc2)CN2CCN(C)CC2)c2cccc(Br)c2)c2cnn(CC(C)c3ccccc3)c2n1 (stereo not drawn) | > 48 h
CSc1nc(N(C(=O)OCCN2CCN(C)CC2)c2cccc(Cl)c2)c2cnn(CC(Cl)c3ccccc3)c2n1 (stereo not drawn) | > 48 h
CN1CCN(CCOC(=O)N(Cc2ccccc2Cl)c2ncnc3c2cnn3CC(Cl)c2ccc(Br)cc2)CC1 (stereo not drawn) | > 48 h
CN1CCN(CCOC(=O)N(Cc2ccccc2)c2ncnc3c2cnn3CC(Cl)c2ccccc2)CC1 (stereo not drawn) | > 48 h

tested on: not listed separately; assay: Drug uptake in cytoplasm of human U87 cells at 20 uM after 7 hrs by UV/LC-MS analysis; format: ADME; conditions: not given

SMILES | Drug uptake
CSc1nc(N(C(=O)OC(Cc2ccccc2)CN2CCN(C)CC2)c2cccc(Br)c2)c2cnn(CC(C)c3ccccc3)c2n1 (stereo not drawn) | Active

tested on: not listed separately; assay: Half life in human plasma by UV/LC-MS analysis; format: ADME, cell-free; conditions: not given

SMILES | half-life
CSc1nc(N(CCc2ccccc2)C(=O)OCCN2CCN(C)CC2)c2cnn(CC(Cl)c3ccccc3)c2n1 (stereo not drawn) | 45.2 h
CCC(CN1CCN(C)CC1)OC(=O)N(c1cccc(Br)c1)c1nc(SC)nc2c1cnn2CC(C)c1ccccc1 (stereo not drawn) | 11.3 h
CSc1nc(N(C(=O)OC(Cc2ccccc2)CN2CCN(C)CC2)c2cccc(Br)c2)c2cnn(CC(C)c3ccccc3)c2n1 (stereo not drawn) | 40 h
CSc1nc(N(C(=O)OCCN2CCN(C)CC2)c2cccc(Cl)c2)c2cnn(CC(Cl)c3ccccc3)c2n1 (stereo not drawn) | 3.71 h
CN1CCN(CCOC(=O)N(Cc2ccccc2Cl)c2ncnc3c2cnn3CC(Cl)c2ccc(Br)cc2)CC1 (stereo not drawn) | 75 h
CN1CCN(CCOC(=O)N(Cc2ccccc2)c2ncnc3c2cnn3CC(Cl)c2ccccc2)CC1 (stereo not drawn) | 64.4 h

tested on: not listed separately; assay: Half life in methanol at 100 uM by UV/LC-MS analysis; format: physicochemical; conditions: not given

SMILES | half-life at 100 µM
CSc1nc(N(CCc2ccccc2)C(=O)OCCN2CCN(C)CC2)c2cnn(CC(Cl)c3ccccc3)c2n1 (stereo not drawn) | > 48 h
CCC(CN1CCN(C)CC1)OC(=O)N(c1cccc(Br)c1)c1nc(SC)nc2c1cnn2CC(C)c1ccccc1 (stereo not drawn) | > 48 h
CSc1nc(N(C(=O)OC(Cc2ccccc2)CN2CCN(C)CC2)c2cccc(Br)c2)c2cnn(CC(C)c3ccccc3)c2n1 (stereo not drawn) | > 48 h
CSc1nc(N(C(=O)OCCN2CCN(C)CC2)c2cccc(Cl)c2)c2cnn(CC(Cl)c3ccccc3)c2n1 (stereo not drawn) | > 48 h
CN1CCN(CCOC(=O)N(Cc2ccccc2Cl)c2ncnc3c2cnn3CC(Cl)c2ccc(Br)cc2)CC1 (stereo not drawn) | > 48 h
CN1CCN(CCOC(=O)N(Cc2ccccc2)c2ncnc3c2cnn3CC(Cl)c2ccccc2)CC1 (stereo not drawn) | > 48 h

tested on: not given; assay: not given; conditions: pampa, 5 h, 500 µM

SMILES | Papp
CSc1nc(Nc2cccc(Cl)c2)c2cnn(CC(Cl)c3ccccc3)c2n1 (stereo not drawn) | 0.26 ×10⁻⁶ cm/s

molecular target: Tyrosine-protein kinase ABL1 (Homo sapiens, UniProt P00519); assay: not given; conditions: not given
Sequence (P00519 whole entry): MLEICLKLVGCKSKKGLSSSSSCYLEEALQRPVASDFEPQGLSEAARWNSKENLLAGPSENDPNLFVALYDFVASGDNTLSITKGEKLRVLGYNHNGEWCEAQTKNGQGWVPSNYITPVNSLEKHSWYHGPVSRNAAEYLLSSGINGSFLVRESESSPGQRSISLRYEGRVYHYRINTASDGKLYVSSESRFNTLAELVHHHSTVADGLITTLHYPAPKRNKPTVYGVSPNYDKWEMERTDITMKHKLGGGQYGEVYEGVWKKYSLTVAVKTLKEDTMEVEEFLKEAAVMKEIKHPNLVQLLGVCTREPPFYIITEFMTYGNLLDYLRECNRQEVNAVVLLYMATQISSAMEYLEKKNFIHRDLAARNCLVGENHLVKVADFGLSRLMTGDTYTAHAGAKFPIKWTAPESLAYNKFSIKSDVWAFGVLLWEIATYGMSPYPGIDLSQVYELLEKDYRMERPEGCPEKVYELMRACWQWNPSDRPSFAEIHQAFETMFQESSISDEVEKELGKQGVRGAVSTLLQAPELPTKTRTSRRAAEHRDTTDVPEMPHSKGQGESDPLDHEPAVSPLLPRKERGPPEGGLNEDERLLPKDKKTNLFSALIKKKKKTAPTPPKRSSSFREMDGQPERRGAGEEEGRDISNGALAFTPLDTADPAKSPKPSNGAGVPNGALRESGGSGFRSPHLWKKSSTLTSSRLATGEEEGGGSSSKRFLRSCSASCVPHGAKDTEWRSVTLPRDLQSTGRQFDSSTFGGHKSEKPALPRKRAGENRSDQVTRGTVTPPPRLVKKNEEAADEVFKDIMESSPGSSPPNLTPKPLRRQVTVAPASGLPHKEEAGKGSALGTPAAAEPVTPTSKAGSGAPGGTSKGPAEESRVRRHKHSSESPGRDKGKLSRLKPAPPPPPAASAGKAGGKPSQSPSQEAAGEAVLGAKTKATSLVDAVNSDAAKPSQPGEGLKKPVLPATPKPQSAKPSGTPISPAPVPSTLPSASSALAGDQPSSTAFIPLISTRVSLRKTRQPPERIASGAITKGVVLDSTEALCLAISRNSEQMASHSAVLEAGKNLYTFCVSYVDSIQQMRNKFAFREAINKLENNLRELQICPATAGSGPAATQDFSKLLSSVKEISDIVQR

SMILES | Ki
CSc1nc(N(C(=O)OC(Cc2ccccc2)CN2CCN(C)CC2)c2cccc(Br)c2)c2cnn(CC(C)c3ccccc3)c2n1 (stereo not drawn) | > 100 µM

tested on: not listed separately; assay: physchem; conditions: aqueous
Description: Aqueous solubility of compound at 1 mg after 24 hrs by UV/LC-MS analysis

SMILES | solubility at 24 h
Clc1ccccc1CNc1ncnc2c1cnn2CC(Cl)c1ccc(Br)cc1 (stereo not drawn) | < 0.01 µg/mL
CSc1nc(N(CCc2ccccc2)C(=O)OCCN2CCN(C)CC2)c2cnn(CC(Cl)c3ccccc3)c2n1 (stereo not drawn) | 107 µg/mL (≈ 180 µM)
CCC(CN1CCN(C)CC1)OC(=O)N(c1cccc(Br)c1)c1nc(SC)nc2c1cnn2CC(C)c1ccccc1 (stereo not drawn) | 1.96 µg/mL (≈ 3 µM)
CCCCNc1nc(SCC)nc2c1cnn2CC(Cl)c1ccccc1 (stereo not drawn) | 0.05 µg/mL (≈ 0.128 µM)
CSc1nc(N(C(=O)OC(Cc2ccccc2)CN2CCN(C)CC2)c2cccc(Br)c2)c2cnn(CC(C)c3ccccc3)c2n1 (stereo not drawn) | 0.99 µg/mL (≈ 1.39 µM)
CSc1nc(N(C(=O)OCCN2CCN(C)CC2)c2cccc(Cl)c2)c2cnn(CC(Cl)c3ccccc3)c2n1 (stereo not drawn) | 4.22 µg/mL (≈ 7.03 µM)
CN1CCN(CCOC(=O)N(Cc2ccccc2Cl)c2ncnc3c2cnn3CC(Cl)c2ccc(Br)cc2)CC1 (stereo not drawn) | 1.95 µg/mL (≈ 3.01 µM)
CSc1nc(Nc2cccc(Br)c2)c2cnn(CC(C)c3ccccc3)c2n1 (stereo not drawn) | 0.01 µg/mL (≈ 0.022 µM)
CSc1nc(Nc2cccc(Cl)c2)c2cnn(CC(Cl)c3ccccc3)c2n1 (stereo not drawn) | 0.13 µg/mL (≈ 0.302 µM)
CN1CCN(CCOC(=O)N(Cc2ccccc2)c2ncnc3c2cnn3CC(Cl)c2ccccc2)CC1 (stereo not drawn) | 18.8 µg/mL (≈ 35.2 µM)
